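A five-concentration, 48-hour dose response in 96-well plates underlies each endpoint, interpolated linearly between surrounding concentrations. At the GI50, growth is halved.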 Activity calls are given as the source filed them. Rule as the data show it: active = GI50 up to about 1.1 µM and inactive = higher.
Key:
Assay in all cases: growth of human tumour cells (NCI), 48 h
IGROV-1 = system: IGROV-1
UACC-257 = system: UACC-257
M14 = system: M14
OVCAR-4 = system: OVCAR-4
EKVX = system: EKVX
A498 = system: A498
CAKI-1 = system: CAKI-1
RXF 393 = system: RXF 393
RPMI-8226 = system: RPMI-8226
MDA-MB-435 = system: MDA-MB-435
SK-OV-3 = system: SK-OV-3
Hs-578T = system: Hs-578T
SNB-19 = system: SNB-19
SK-MEL-2 = system: SK-MEL-2
SF-539 = system: SF-539
HCT-15 = system: HCT-15
SF-295 = system: SF-295
HCC 2998 = system: HCC 2998
ACHN = system: ACHN
MDA-N = system: MDA-N
HOP-92 = system: HOP-92
PC-3 = system: PC-3
SN12C = system: SN12C
HOP-62 = system: HOP-62
HCT-116 = system: HCT-116
K562 = system: K562
786-0 = system: 786-0
SW-620 = system: SW-620
T47D = system: T47D
HT-29 = system: HT-29
LOX IMVI = system: LOX IMVI
OVCAR-3 = system: OVCAR-3
TK-10 = system: TK-10
OVCAR-8 = system: OVCAR-8
U-251 = system: U-251
OVCAR-5 = system: OVCAR-5
DU-145 = system: DU-145
SF-268 = system: SF-268
SR = system: SR
MCF7 = system: MCF7
UACC-62 = system: UACC-62
MOLT-4 = system: MOLT-4
A549 = system: A549
NCI/ADR-RES = system: NCI/ADR-RES
KM12 = system: KM12
NCI-H226 = system: NCI-H226
MDA-MB-231 = system: MDA-MB-231
UO-31 = system: UO-31
SK-MEL-5 = system: SK-MEL-5
NCI-H23 = system: NCI-H23
Malme-3M = system: Malme-3M
CCRF-CEM = system: CCRF-CEM
NCI-H460 = system: NCI-H460
NCI-H522 = system: NCI-H522
COLO 205 = system: COLO 205
BT-549 = system: BT-549
SK-MEL-28 = system: SK-MEL-28
SNB-75 = system: SNB-75
HL-60 = system: HL-60

COC(=O)C(N)CCCC(N)C(=O)NC(C)C(=O)NC(CCC(=O)NCCNCCNc1c2ccccc2nc2cccc([N+](=O)[O-])c12)C(N)=O (centres undefined)
GI50 (IGROV-1): 4.6 µM (inactive)
GI50 (UACC-257): 19.5 µM (inactive)
GI50 (M14): 13.4 µM (inactive)
GI50 (OVCAR-4): 2.16 µM (inactive)
GI50 (EKVX): 10.2 µM (inactive)
GI50 (A498): 17.4 µM (inactive)
GI50 (CAKI-1): 27.9 µM (inactive)
GI50 (RXF 393): 8.51 µM (inactive)
GI50 (RPMI-8226): 5.32 µM (inactive)
GI50 (MDA-MB-435): 6.93 µM (inactive)
GI50 (SK-OV-3): 28 µM (inactive)
GI50 (Hs-578T): 17.9 µM (inactive)
GI50 (SNB-19): 18.5 µM (inactive)
GI50 (SK-MEL-2): 8.51 µM (inactive)
GI50 (SF-539): 5.19 µM (inactive)
GI50 (HCT-15): 14.2 µM
GI50 (SF-295): 27.8 µM (inactive)
GI50 (HCC 2998): 8.34 µM (inactive)
GI50 (ACHN): 10.2 µM (inactive)
GI50 (MDA-N): 14.7 µM (inactive)
GI50 (HOP-92): 4.83 µM (inactive)
GI50 (PC-3): 4.79 µM (inactive)
GI50 (SN12C): 12.8 µM (inactive)
GI50 (HOP-62): 19 µM (inactive)
GI50 (HCT-116): 4.63 µM (inactive)
GI50 (K562): 3.13 µM (inactive)
GI50 (786-0): 5.12 µM (inactive)
GI50 (SW-620): 9.86 µM (inactive)
GI50 (T47D): 5.06 µM (inactive)
GI50 (HT-29): 13.7 µM (inactive)
GI50 (LOX IMVI): 14.7 µM (inactive)
GI50 (OVCAR-3): 12.3 µM (inactive)
GI50 (TK-10): 16.2 µM (inactive)
GI50 (OVCAR-8): 8.79 µM (inactive)
GI50 (U-251): 5.48 µM (inactive)
GI50 (OVCAR-5): 35.2 µM (inactive)
GI50 (DU-145): 6.28 µM (inactive)
GI50 (SF-268): 2.44 µM (inactive)
GI50 (SR): 19.7 µM (inactive)
GI50 (MCF7): 3.89 µM (inactive)
GI50 (UACC-62): 8.09 µM (inactive)
GI50 (MOLT-4): 3.5 µM (inactive)
GI50 (A549): 4.67 µM (inactive)
GI50 (NCI/ADR-RES): 80.5 µM (inactive)
GI50 (KM12): 10.5 µM (inactive)
GI50 (NCI-H226): 10.9 µM (inactive)
GI50 (MDA-MB-231): 16.9 µM (inactive)
GI50 (UO-31): 21.9 µM (inactive)
GI50 (SK-MEL-5): 6.92 µM (inactive)
GI50 (NCI-H23): 3.03 µM (inactive)
GI50 (Malme-3M): 11.3 µM (inactive)
GI50 (CCRF-CEM): 7.59 µM (inactive)
GI50 (NCI-H460): 3.17 µM (inactive)
GI50 (NCI-H522): 1.65 µM (inactive)
GI50 (COLO 205): 6.28 µM (inactive)
GI50 (BT-549): 16.3 µM (inactive)
GI50 (SK-MEL-28): 16.6 µM (inactive)
GI50 (SNB-75): 10.4 µM (inactive)

O=C1C/C(=C\O)C(=O)c2ccccc2N1
GI50 (IGROV-1): > 100 µM (inactive)
GI50 (UACC-257): > 100 µM (inactive)
GI50 (M14): > 100 µM (inactive)
GI50 (OVCAR-4): > 100 µM (inactive)
GI50 (EKVX): > 100 µM (inactive)
GI50 (A498): > 100 µM (inactive)
GI50 (CAKI-1): > 100 µM (inactive)
GI50 (RXF 393): > 100 µM (inactive)
GI50 (MDA-MB-435): > 100 µM (inactive)
GI50 (SK-OV-3): > 100 µM (inactive)
GI50 (Hs-578T): > 100 µM (inactive)
GI50 (SNB-19): > 100 µM (inactive)
GI50 (SK-MEL-2): > 100 µM (inactive)
GI50 (SF-539): > 100 µM (inactive)
GI50 (HCT-15): > 100 µM
GI50 (SF-295): > 100 µM (inactive)
GI50 (HCC 2998): > 100 µM (inactive)
GI50 (ACHN): > 100 µM (inactive)
GI50 (MDA-N): > 100 µM (inactive)
GI50 (HOP-92): > 100 µM (inactive)
GI50 (PC-3): > 100 µM (inactive)
GI50 (SN12C): > 100 µM (inactive)
GI50 (HOP-62): > 100 µM (inactive)
GI50 (HCT-116): > 100 µM (inactive)
GI50 (K562): > 100 µM (inactive)
GI50 (786-0): > 100 µM (inactive)
GI50 (T47D): 61.8 µM (inactive)
GI50 (HT-29): > 100 µM (inactive)
GI50 (LOX IMVI): > 100 µM (inactive)
GI50 (OVCAR-3): > 100 µM (inactive)
GI50 (TK-10): > 100 µM (inactive)
GI50 (OVCAR-8): > 100 µM (inactive)
GI50 (U-251): > 100 µM (inactive)
GI50 (OVCAR-5): > 100 µM (inactive)
GI50 (DU-145): > 100 µM (inactive)
GI50 (SF-268): > 100 µM (inactive)
GI50 (SR): > 100 µM (inactive)
GI50 (MCF7): > 100 µM (inactive)
GI50 (UACC-62): > 100 µM (inactive)
GI50 (MOLT-4): > 100 µM (inactive)
GI50 (A549): > 100 µM (inactive)
GI50 (NCI/ADR-RES): > 100 µM (inactive)
GI50 (KM12): > 100 µM (inactive)
GI50 (NCI-H226): > 100 µM (inactive)
GI50 (MDA-MB-231): > 100 µM (inactive)
GI50 (UO-31): > 100 µM (inactive)
GI50 (SK-MEL-5): > 100 µM (inactive)
GI50 (HL-60): > 100 µM (inactive)
GI50 (NCI-H23): > 100 µM (inactive)
GI50 (Malme-3M): > 100 µM (inactive)
GI50 (CCRF-CEM): > 100 µM (inactive)
GI50 (NCI-H460): > 100 µM (inactive)
GI50 (NCI-H522): > 100 µM (inactive)
GI50 (COLO 205): > 100 µM (inactive)
GI50 (BT-549): > 100 µM (inactive)
GI50 (SK-MEL-28): > 100 µM (inactive)
